Measured values: patent US20100062078A1, “PHARMACEUTICAL COMPOSITION FOR TREATING CANCER AND THE SIGNALING PATHWAY THEREOF” (priority 2008, published 2010)

Tests used:
[1] = system: MDAH-2774; assay: Clonogenic assay (colony formation); format: cell-based, human; conditions: 3 hours treatment, 14 days in fresh medium
Protocol: (§1) Cells were seeded at 7×10^3 per well in 96-well culture plates before treatment with different concentrations of protoapigenone for 12, 24 and/or 48 hours. Next, the cytotoxicity of protoapigenone was determined using XTT cell proliferation assay (Sigma, St. Louis, Mo.). The absorbance of wavelength at 490 nm (OD490) and 650 nm (OD650) were determined respectively by enzyme-linked immunosorbent assay (ELISA) reader, and 50% of inhibitory concentration (IC50) was calculated by the value of OD490-OD650. In addition, in order to evaluate the long-term effect, the cells were treated with different concentration of protoapigenone for 3 hours, then were incubated with fresh medium for 14 days so as to form colonies. Finally, the cells were stained with crystal violet and were observed under the microscope.

[2] = system: SKOV3; assay: Cell cycle and sub-G1 analysis (PI flow cytometry); format: cell-based, human; conditions: SKOV3, 24 hours
Protocol: (§2) The ovarian cancer cells and the prostate cancer cells respectively were treated with protoapigenone at different concentrations (0, 2.5, 5 and 10 μM) for 24 hours and 6 hours (or 12 hours). These cells were harvested by trypsin and fixed with 70% ethanol for 1 hour, washed with phosphate buffered saline (PBS) twice, and resuspended in propidium iodide (PI)/RNase A solution for 30 minutes. In accordance with the mechanism of DNA stained with propidium iodide, the cell cycle and sub-G1 distribution were detected by the FACScan flow cytometry (Becton Dickinson, San Jose, Calif.), and data analysis was done with CellQuest software (BD Bioscience).

[3] = system: MDAH-2774; assay: Cell cycle and sub-G1 analysis (PI flow cytometry); format: cell-based, human; conditions: MDAH-2774, 24 hours
Protocol: as §2

[4] = system: JNK½; assay: Immunoblotting, phosphorylation in LNCap cells; format: cell-based, human; conditions: exposure for 1 hour
From the text: (§3) The concentration of protein supernatant was further determined using the Bio-Rad protein assay kit (Bio-Rad Laboratories, Hercules, Calif.). Whole cell lysates were separated on polyacrylamide sodium dodecyl sulfate (SDS) gels and the proteins were transferred onto the nitrocellulose membrane. Proteins were detected sequentially by the specific primary antibodies, followed by peroxidase-conjugated secondary antibodies, and visualized by the Enhanced chemiluminescence detection system (Amersham, N.J.).

[5] = system: p38 MAPK; assay: Immunoblotting, phosphorylation in LNCap cells; format: cell-based, human; conditions: LNCap, exposure for 1 hour
From the text: as §3

[6] = Body weight, complete blood count and biochemical profile of MDAH-2774-xenografted nude mice; format: in vivo; conditions: for Creatine / Got (glutamic-oxaloacetic transaminase) / Gpt (glutamic-pyruvic transaminase) / HCT (hematocrit) / MCV (mean corpuscular volume) / PLT / RBC / WBC / Body weight: MDAH-2774 xenograft
[7] = system: SKOV3 cells; assay: Cell survival assay (trypan blue) at cell cycle phases; format: cell-based, human; conditions: 4 hours
Protocol: SKOV3 cells at various cell cycle phases were incubated in the 6-cm Petri dishes and treated with protoapigenone at different dosages ([…]). Subsequently, the cells were harvested and mixed with trypan blue at a ratio of 1:1. The stained apoptotic cells were observed under the microscope.

[8] = Body weight, complete blood count and biochemical profile of LNCap-xenografted nude mice; format: in vivo; conditions: for BUN / Creatine / Got (glutamic-oxaloacetic transaminase) / Gpt (glutamic-pyruvic transaminase) / MCV (mean corpuscular volume) / RBC / WBC / Body weight: LNCap xenograft
Protocol: (§4) MDAH-2774 human ovarian cancer cells of 2×10^6 (or LNCap prostate cancer cells of 1×10^6) in 0.1 ml PBS were injected subcutaneously at the right flank of 6-week-old female nude mice (Foxnlun/Foxulun). When tumors became visible (approximately 3×3 mm in size), the mice were randomly grouped and treated intraperitoneally with protoapigenone or vehicle every other day. […] Tumor size and body weight were measured twice a week using calipers, and their tumor volumes were calculated according to a standard formula: width^2×length/2. After treatment with protoapigenone for 5 weeks, the mice xenografted with LNCap cells were sacrificed by deep anesthesia, and the blood sampling by cardiac aspiration was done immediately after anesthesia. Complete blood count of the nude mice blood was determined by Sysmex XE-2100 (TOA Medical Electronics, Kobe, Japan), and the plasma blood urea nitrogen (BUN), creatine (Cr), asparatate aminotransferase (AST), and alanine aminotransferase (ALT) levels were determined by Beckman LX20 (Beckman-Coulter, U.S.A.)

[9] = system: HeLa; assay: Cell cycle distribution; format: cell-based, human
[10] = system: MDAH-2774 human ovarian cancer cells; assay: Nude mice xenograft model, tumor growth; format: in vivo; conditions: low dose (0.069 μM/g) and high dose (0.69 μM/g) i.p. every other day, 7-week treatment
Protocol: as §4

[11] = system: T24; assay: XTT cell proliferation assay (growth inhibition); format: cell-based, human
Protocol: as §1

[12] = system: Hep 3B; assay: XTT cell proliferation assay (growth inhibition); format: cell-based, human
Protocol: as §1

[13] = system: RT4; assay: XTT cell proliferation assay (growth inhibition); format: cell-based, human
Protocol: as §1

[14] = system: LNCap; assay: XTT cell proliferation assay (growth inhibition); format: cell-based, human; conditions: Homo sapiens; LNCap, 48-hour treatment
Protocol: as §1

Structure (SMILES): O=C1C=CC(O)(c2cc(=O)c3c(O)cc(O)cc3o2)C=C1 [protoapigenone]
- ratio of colony formation [1]: decrease along with the increased protoapigenone concentrations
- apoptotic sub-G1 peak [2]: increases the apoptotic sub-G1 peak
- cell cycle distribution ([2]; various concentrations): enter into S and G2/M phases
- apoptotic sub-G1 peak [3]: increases the apoptotic sub-G1 peak
- cell cycle distribution ([3]; various concentrations): enter into S and G2/M phases
- phosphorylation of JNK½ [4]: dramatic increase
- phosphorylation of p38 MAPK [5]: dramatic increase
- impairment of hematopoiesis, liver function, or renal function ([6]; MDAH-2774-xenografted nude mice, intraperitoneal injection, 7 weeks): no significant impairment
- Creatine ([6]; high dose, 7 weeks): 0.5 ± 0.0 mg/dL
- Got (glutamic-oxaloacetic transaminase) ([6]; high dose, 7 weeks): 148.2 ± 59.3 U/L
- Gpt (glutamic-pyruvic transaminase) ([6]; high dose, 7 weeks): 52.0 ± 17.6 U/L
- HCT (hematocrit) ([6]; high dose, 7 weeks): 46.1 ± 1.8%
- MCV (mean corpuscular volume) ([6]; high dose, 7 weeks): 50.9 ± 0.9 fL
- PLT ([6]; high dose, 7 weeks): 916.3 ± 100.5 10 × 3/μl
- RBC ([6]; high dose, 7 weeks): 9.1 ± 0.3 10^6/µL
- WBC ([6]; high dose, 7 weeks): 2.0 ± 0.9 10 × 3/μl
- Body weight ([6]; high dose, after treatment (7 weeks)): 19.8 ± 1.1 g
- Body weight ([6]; high dose, before treatment): 19.6 ± 0.8 g
- Creatine ([6]; low dose, 7 weeks): 0.5 ± 0.0 mg/dL
- Got (glutamic-oxaloacetic transaminase) ([6]; low dose, 7 weeks): 119.5 ± 45.5 U/L
- Gpt (glutamic-pyruvic transaminase) ([6]; low dose, 7 weeks): 46.3 ± 16.7 U/L
- HCT (hematocrit) ([6]; low dose, 7 weeks): 43.5 ± 3.6%
- MCV (mean corpuscular volume) ([6]; low dose, 7 weeks): 56.2 ± 8.9 fL
- PLT ([6]; low dose, 7 weeks): 1094.5 ± 124.9 10 × 3/μl
- RBC ([6]; low dose, 7 weeks): 7.8 ± 1.4 10^6/µL
- WBC ([6]; low dose, 7 weeks): 2.6 ± 1.2 10 × 3/μl
- Body weight ([6]; low dose, after treatment (7 weeks)): 19.4 ± 0.1 g
- Body weight ([6]; low dose, before treatment): 19.6 ± 0.6 g
- decrease in number of SKOV3 cells proliferated at G2 phase ([7]; 5 μM): 20.3%
- decrease in number of SKOV3 cells proliferated at M phase ([7]; 5 μM): 44.8%
- decrease in number of SKOV3 cells proliferated at S phase ([7]; 5 μM): 23.5%
- decrease in number of SKOV3 cells proliferated at G2 phase ([7]; 10 μM): 34.7%
- decrease in number of SKOV3 cells proliferated at M phase ([7]; 10 μM): 70.5%
- decrease in number of SKOV3 cells proliferated at S phase ([7]; 10 μM): 45.4%
- BUN ([8]; high dose, 5 weeks): 24.8 ± 9.0 mg/dL
- Creatine ([8]; high dose, 5 weeks): 0.48 ± 0.10 mg/dL
- Got (glutamic-oxaloacetic transaminase) ([8]; high dose, 5 weeks): 630.7 ± 165.5 U/L
- Gpt (glutamic-pyruvic transaminase) ([8]; high dose, 5 weeks): 137.3 ± 55.8 U/L
- MCV (mean corpuscular volume) ([8]; high dose, 5 weeks): 47.7 ± 0.9 fL
- RBC ([8]; high dose, 5 weeks): 7.3 ± 0.7 10^6/µL
- WBC ([8]; high dose, 5 weeks): 2.7 ± 1.0 10 × 3/μl
- Body weight ([8]; high dose, after treatment (5 weeks)): 13.5 ± 0.6 g
- Body weight ([8]; high dose, before treatment): 11.5 ± 0.8 g
- BUN ([8]; low dose, 5 weeks): 23.9 ± 3.2 mg/dL
- Creatine ([8]; low dose, 5 weeks): 0.43 ± 0.05 mg/dL
- Got (glutamic-oxaloacetic transaminase) ([8]; low dose, 5 weeks): 520.5 ± 169.9 U/L
- Gpt (glutamic-pyruvic transaminase) ([8]; low dose, 5 weeks): 130.0 ± 119.9 U/L
- MCV (mean corpuscular volume) ([8]; low dose, 5 weeks): 46.8 ± 0.8 fL
- RBC ([8]; low dose, 5 weeks): 7.3 ± 0.6 10^6/µL
- WBC ([8]; low dose, 5 weeks): 2.3 ± 0.7 10 × 3/μl
- Body weight ([8]; low dose, after treatment (5 weeks)): 13.6 ± 1.2 g
- Body weight ([8]; low dose, before treatment): 11.8 ± 0.4 g
- body weight, control vs protoapigenone-treated group ([8]; LNCap-xenografted nude mice, 5 weeks): no significant difference
- impairment of hematopoiesis, liver function, or renal function ([8]; LNCap-xenografted nude mice, intraperitoneal injection, 5 weeks): No significant impairment
- cell cycle distribution [9]: arrested at G2/M phase
- tumor growth of MDAH-2774 cells vs PBS control [10]: significantly suppressed
- IC50 ([11]; Homo sapiens, T-24, bladder cancer T24): 5.52 ± 0.598 µM
- growth inhibition ([11]; T24, various concentrations): dose-dependent and time-dependent
- growth inhibition ([12]; Hep 3B, various concentrations): dose-dependent and time-dependent
- IC50 ([12]; Hep3B, human hepatocellular carcinoma Hep 3B): 1.86 µM
- survival rate of RT4 cells ([13]; 4 μM and 8 μM, 24 and 48 hours): decreased
- IC50 ([13]; RT-4, human urinary bladder transitional cell papilloma RT4): 5.11 ± 3.25 µM
- survival rate of RT4 cells ([13]; low concentrations (0.5, 1 and 2 μM)): over 100%
- IC50 [14]: 3.7 ± 0.2 µM
